For 19 molecules, fold induction and IC50 results are on record in patent publication US20250092064A1, “BENZOTRIAZOLE COMPOUND” (DAIICHI SANKYO COMPANY, LIMITED, priority 2022, published 2025).

In experiment [1] the test system is NQO1 activity in Hepa1c1c7 cells. Put plainly: NAD(P)H: quinone oxidoreductase-1 (NQO1) enzyme induction assay (in vitro). The experiment is classed as cell-based, mouse. To be noted: Mus musculus, Hepa-1c1c7, NQO1 activity with 400 nM test compound as a ratio from the base without compound, about 48 hr. An outline of the steps:
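Mouse Hepa1c1c7 hepatoma cells treated 48 hr with 400 nM compound (final). NQO1 activity in lysates read by absorbance at 610 nm; value is background-subtracted activity ratio versus untreated cells.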

Experiment [2] deals with binding between Nrf2 and Keap1 (Homo sapiens (Human), UniProt Q14145). Put plainly: FP assay (in vitro): inhibition of Nrf2-Keap1 binding by fluorescence polarization. To be noted: GST-fused human Keap1 (325-642) 20 nM, FITC-labeled Nrf2 peptide 10 nM, 2 hr at room temperature.
binding between Nrf2 and Keap1, sequence (Q14145 325-624 limits assumed): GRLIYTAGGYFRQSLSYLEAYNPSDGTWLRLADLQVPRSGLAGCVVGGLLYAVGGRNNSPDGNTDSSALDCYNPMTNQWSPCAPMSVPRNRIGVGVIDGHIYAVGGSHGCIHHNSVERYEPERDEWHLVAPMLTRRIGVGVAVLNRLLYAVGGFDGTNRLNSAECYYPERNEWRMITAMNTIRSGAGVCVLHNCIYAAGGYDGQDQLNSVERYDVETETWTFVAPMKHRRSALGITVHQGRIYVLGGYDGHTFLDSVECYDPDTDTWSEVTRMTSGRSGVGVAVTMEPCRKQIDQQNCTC

One may read the fold induction as the signal under treatment as a multiple of the control signal. The term IC50 denotes the midpoint of a concentration-inhibition curve. A low value points to higher potency. As for `Cc1c([C@H](CC(=O)O)c2cc(CN3C[C@@H](C)Oc4ccc(O)nc4[C@@H]3C)c3sccc3c2)ccc2c1nnn2C` [Example 82, (3R)-3-(1,4-Dimethyl-1H-benzotriazol-5-yl)-3-(7-{[(2R,5S)-7-hydroxy-2,5-dimethyl-2,3-dihydropyrido[2,3-f][1,4]oxazepin-4(5H)-yl]methyl}-1-benzothiophen-5-yl)propanoic acid], the fold induction at 0.4 µM in experiment [1] is greater than 5. This molecule also showed an IC50 in experiment [2] of 10 to 30 nM.
The matching figures for `CC[C@@H]1CN(Cc2cc(C(CC(=O)O)c3ccc4c(nnn4C)c3C)cc3ccsc23)[C@H](C)c2ncccc2O1` (stereo partly drawn) [Example 73, 3-(1,4-Dimethyl-1H-benzotriazol-5-yl)-3-(7-{[(2R,5R)-2-ethyl-5-methyl-2,3-dihydropyrido[2,3-f][1,4]oxazepin-4(5H)-yl]methyl}-1-benzothiophen-5-yl)propanoic acid]: greater than 5 and 30 to 100 nM.
For `CC[C@@H]1CN(Cc2cc([C@@H](CC(=O)O)c3ccc4c(nnn4C)c3C)cc3c2CCC3)S(=O)(=O)c2cc(Cl)c(F)cc2O1` [Example 20, (3R)-3-(7-{[(4R)-8-Chloro-4-ethyl-7-fluoro-1,1-dioxido-3,4-dihydro-2H-5,1,2-benzoxathiazepin-2-yl]methyl}-2,3-dihydro-1H-inden-5-yl)-3-(1,4-dimethyl-1H-benzotriazol-5-yl)propanoic acid] the same measures were greater than 5 and 10 to 30 nM.
Turning to `CC[C@@H]1CN(Cc2cc([C@H](CC(=O)O)c3cc(C4CC4)c4c(nnn4C)c3C)cc3c2CCC3)[C@@H](C)c2ncccc2O1` [Example 106, (3S)-3-(7-Cyclopropyl-1,4-dimethyl-1H-benzotriazol-5-yl)-3-(7-{[(2R,5S)-2-ethyl-5-methyl-2,3-dihydropyrido[2,3-f][1,4]oxazepin-4(5H)-yl]methyl}-2,3-dihydro-1H-inden-5-yl)propanoic acid], the fold induction at 0.4 µM in experiment [1] is greater than 5. Besides, the IC50 in experiment [2] was no more than 10 nM.
In the case of `CC[C@@H]1CN(Cc2cc(C(CC(=O)O)c3ccc4c(nnn4C)c3C)cc3c2CCC3)S(=O)(=O)c2cc(Cl)c(F)cc2O1` (stereo partly drawn) [Example 13, 3-(7-{[(4R)-8-Chloro-4-ethyl-7-fluoro-1,1-dioxido-3,4-dihydro-2H-5,1,2-benzoxathiazepin-2-yl]methyl}-2,3-dihydro-1H-inden-5-yl)-3-(1,4-dimethyl-1H-benzotriazol-5-yl)propanoic acid], the fold induction at 0.4 µM in experiment [1] is greater than 5. Moreover, the IC50 in experiment [2] is no more than 10 nM.
The matching figures for `CC[C@@H]1CN(Cc2cc([C@@H](CC(=O)O)c3ccc4c(nnn4C)c3C)cc3ccsc23)C(C)c2nc(O)ccc2O1` (single isomer, unassigned) [Example 78, (3R)-3-(1,4-Dimethyl-1H-benzotriazol-5-yl)-3-(7-{[(2R,5S*)-2-ethyl-7-hydroxy-5-methyl-2,3-dihydropyrido[2,3-f][1,4]oxazepin-4(5H)-yl]methyl}-1-benzothiophen-5-yl)propanoic acid]: greater than 5 and 10 to 30 nM.
On to `CC[C@@H]1CN(Cc2cc(C(CC(=O)O)c3cc(OC(F)F)c4c(nnn4C)c3C)cc3ccsc23)S(=O)(=O)c2cc(Cl)cnc2O1` (stereo partly drawn) [Example 55, 3-(7-{[(4R)-8-Chloro-4-ethyl-1,1-dioxido-3,4-dihydro-2H-pyrido[2,3-b][1,4,5]oxathiazepin-2-yl]methyl}-1-benzothiophen-5-yl)-3-[7-(difluoromethoxy)-1,4-dimethyl-1H-benzotriazol-5-yl]propanoic acid], for which, in experiment [1], the fold induction at 0.4 µM is greater than 5. In addition, in experiment [2], the concentration for half-maximal inhibition (IC50) is 10 to 30 nM.
Turning to `CC[C@@H]1CN(Cc2cc(C(CC(=O)O)c3cc(C4CC4)c4c(nnn4C)c3C)cc3[nH]ccc23)S(=O)(=O)c2cc(Cl)cnc2O1` (stereo partly drawn) [Example 103, 3-(4-{[(4R)-8-Chloro-4-ethyl-1,1-dioxido-3,4-dihydro-2H-pyrido[2,3-b][1,4,5]oxathiazepin-2-yl]methyl}-1H-indol-6-yl)-3-(7-cyclopropyl-1,4-dimethyl-1H-benzotriazol-5-yl)propanoic acid], in experiment [1], the fold induction at 0.4 µM was greater than 5. The same molecule returned an IC50 in experiment [2] of no more than 10 nM.
With `C[C@@H]1CN(Cc2cc(C(CC(=O)O)c3ccc4c(nnn4C)c3F)cc3c2CCC3)S(=O)(=O)c2ccccc2O1` (stereo partly drawn) [Example 6, 3-(4-Fluoro-1-methyl-1H-benzotriazol-5-yl)-3-(7-{[(4R)-4-methyl-1,1-dioxido-3,4-dihydro-2H-5,1,2-benzoxathiazepin-2-yl]methyl}-2,3-dihydro-1H-inden-5-yl)propanoic acid], the fold induction at 0.4 µM in experiment [1] was greater than 5. Moreover, the IC50 in experiment [2] is no more than 10 nM.
In the case of `CC[C@@H]1CN(Cc2cc([C@@H](CC(=O)O)c3cc(C4CC4)c4c(nnn4C)c3C)cc3c2CCC3)S(=O)(=O)c2cc(Cl)cnc2O1` [Example 39, (3R)-3-(7-{[(4R)-8-Chloro-4-ethyl-1,1-dioxido-3,4-dihydro-2H-pyrido[2,3-b][1,4,5]oxathiazepin-2-yl]methyl}-2,3-dihydro-1H-inden-5-yl)-3-(7-cyclopropyl-1,4-dimethyl-1H-benzotriazol-5-yl)propanoic acid], the fold induction at 0.4 µM in experiment [1] was in the range of 3 to 5. For the same molecule, in experiment [2], the IC50 fell in the range of 10 to 30 nM.
Take `CC[C@@H]1CN(Cc2cc(C(CC(=O)O)c3cc(C4CC4)c4c(nnn4C)c3C)cc3ccoc23)S(=O)(=O)c2cc(Cl)cnc2O1` (stereo partly drawn) [Example 110, 3-(7-{[(4R)-8-Chloro-4-ethyl-1,1-dioxido-3,4-dihydro-2H-pyrido[2,3-b][1,4,5]oxathiazepin-2-yl]methyl}-1-benzofuran-5-yl)-3-(7-cyclopropyl-1,4-dimethyl-1H-benzotriazol-5-yl)propanoic acid]: the fold induction at 0.4 µM in experiment [1] was greater than 5. In experiment [2], this molecule displayed an IC50 of 30 to 100 nM.
On to `CC[C@@H]1CN(Cc2cc(C(CC(=O)O)c3cc(Cl)c4c(nnn4C)c3C)cc3c2CCC3)[C@@H](C)c2ncccc2O1` (single isomer, unassigned) [Example 71, (3R*)-3-(7-Chloro-1,4-dimethyl-1H-benzotriazol-5-yl)-3-(7-{[(2R,5S)-2-ethyl-5-methyl-2,3-dihydropyrido[2,3-f][1,4]oxazepin-4(5H)-yl]methyl}-2,3-dihydro-1H-inden-5-yl)propanoic acid], for which the fold induction at 0.4 µM in experiment [1] was greater than 5. In addition, the half-maximal inhibitory concentration (IC50) in experiment [2] was no more than 10 nM.
Consider `CC[C@@H]1CN(Cc2cc(C(CC(=O)O)c3ccc4c(nnn4C)c3C)cc3c2CCC3)S(=O)(=O)c2cc(Cl)cnc2O1` (stereo partly drawn) [Example 3, 3-(7-{[(4R)-8-Chloro-4-ethyl-1,1-dioxido-3,4-dihydro-2H-pyrido[2,3-b][1,4,5]oxathiazepin-2-yl]methyl}-2,3-dihydro-1H-inden-5-yl)-3-(1,4-dimethyl-1H-benzotriazol-5-yl)propanoic acid], for which the fold induction at 0.4 µM in experiment [1] is greater than 5. This molecule came in with a concentration for half-maximal inhibition (IC50) in experiment [2] of no more than 10 nM.
The matching figures for `CC[C@@H]1CN(Cc2cc(C(CC(=O)O)c3ccc4c(nnn4CCN(C)C)c3C)cc3ccsc23)S(=O)(=O)c2cc(Cl)cnc2O1` (stereo partly drawn) [Example 58, 3-(7-{[(4R)-8-Chloro-4-ethyl-1,1-dioxido-3,4-dihydro-2H-pyrido[2,3-b][1,4,5]oxathiazepin-2-yl]methyl}-1-benzothiophen-5-yl)-3-{1-[2-(dimethylamino)ethyl]-4-methyl-1H-benzotriazol-5-yl}propanoic acid]: greater than 5 and 30 to 100 nM.
Turning to `CC[C@@H]1CN(Cc2cc([C@@H](CC(=O)O)c3cc(C)c4c(nnn4C)c3C)cc3c2CCC3)S(=O)(=O)c2cc(Cl)cnc2O1` [Example 44, (3R)-3-(7-{[(4R)-8-Chloro-4-ethyl-1,1-dioxido-3,4-dihydro-2H-pyrido[2,3-b][1,4,5]oxathiazepin-2-yl]methyl}-2,3-dihydro-1H-inden-5-yl)-3-(1,4,7-trimethyl-1H-benzotriazol-5-yl)propanoic acid], the fold induction at 0.4 µM in experiment [1] fell in the range of 3 to 5. Further, in experiment [2], the 50% inhibitory concentration (IC50) was no more than 10 nM.
As to `CC[C@@H]1CN(Cc2cc([C@H](CC(=O)O)c3ccc4c(nnn4C)c3C)cc3ccsc23)S(=O)(=O)c2cc(Cl)c(F)cc2O1` [Example 23, (3S)-3-(7-{[(4R)-8-Chloro-4-ethyl-7-fluoro-1,1-dioxido-3,4-dihydro-2H-5,1,2-benzoxathiazepin-2-yl]methyl}-1-benzothiophen-5-yl)-3-(1,4-dimethyl-1H-benzotriazol-5-yl)propanoic acid], the fold induction at 0.4 µM in experiment [1] is greater than 5. Moreover, the IC50 in experiment [2] was no more than 10 nM.
For `CC[C@@H]1CN(Cc2cc([C@@H](CC(=O)O)c3ccc4c(nnn4C)c3Cl)cc3ccsc23)[C@@H](C)c2ncccc2O1` [Example 75, (3R)-3-(4-Chloro-1-methyl-1H-benzotriazol-5-yl)-3-(7-{[(2R,5S)-2-ethyl-5-methyl-2,3-dihydropyrido[2,3-f][1,4]oxazepin-4(5H)-yl]methyl}-1-benzothiophen-5-yl)propanoic acid] the same measures were greater than 5 and no more than 10 nM.
`CC[C@@H]1CN(Cc2cc(C(CC(=O)O)c3ccc4c(nnn4C)c3C)cc3c2CCC3)S(=O)(=O)c2c(Cl)cccc2O1` (stereo partly drawn) [Example 17, 3-(7-{[(4R)-9-Chloro-4-ethyl-1,1-dioxido-3,4-dihydro-2H-5,1,2-benzoxathiazepin-2-yl]methyl}-2,3-dihydro-1H-inden-5-yl)-3-(1,4-dimethyl-1H-benzotriazol-5-yl)propanoic acid]: the fold induction at 0.4 µM in experiment [1] was in the range of 3 to 5. The same molecule had an IC50 in experiment [2] of no more than 10 nM.
Regarding `CC[C@@H]1CN(Cc2cc([C@@H](CC(=O)O)c3cc(C)c4c(nnn4C)c3C)cc3ccsc23)[C@@H](C)c2ncccc2O1` [Example 67, (3R)-3-(7-{[(2R,5S)-2-Ethyl-5-methyl-2,3-dihydropyrido[2,3-f][1,4]oxazepin-4(5H)-yl]methyl}-1-benzothiophen-5-yl)-3-(1,4,7-trimethyl-1H-benzotriazol-5-yl)propanoic acid], the fold induction at 0.4 µM in experiment [1] was greater than 5. The molecule further registered a 50% inhibitory concentration (IC50) in experiment [2] of no more than 10 nM.
